What was measured:
[1] = target: T1, H2-receptor (Homo sapiens, UniProt P25021); conditions: cited from earlier work
[2] = target: T1, H2-receptor; conditions: cited from earlier work; remark: listed apart in the source
[3] = test system: herpes simplex virus (HSV) type 2; conditions: animals inoculated intravenously with HSV; cited from earlier work
[4] = prior reports; cited from earlier work
[5] = Description: Peripheral blood venous samples were drawn in 10 ml heparinized test tubes before the onset of treatment and weekly thereafter. […] The manufacturer's instructions provided with the kit, dated June, 1989, were followed. Blood histamine levels were measured at the indicated times.
[6] = Effect of rate and duration of histamine administration on side effects and efficacy; conditions: administered over longer than about 30 minutes
[7] = test system: Acute Myelogenous Leukernia; conditions: IL-2 as the single agent; cited from earlier work

T1 sequence (P25021 whole entry): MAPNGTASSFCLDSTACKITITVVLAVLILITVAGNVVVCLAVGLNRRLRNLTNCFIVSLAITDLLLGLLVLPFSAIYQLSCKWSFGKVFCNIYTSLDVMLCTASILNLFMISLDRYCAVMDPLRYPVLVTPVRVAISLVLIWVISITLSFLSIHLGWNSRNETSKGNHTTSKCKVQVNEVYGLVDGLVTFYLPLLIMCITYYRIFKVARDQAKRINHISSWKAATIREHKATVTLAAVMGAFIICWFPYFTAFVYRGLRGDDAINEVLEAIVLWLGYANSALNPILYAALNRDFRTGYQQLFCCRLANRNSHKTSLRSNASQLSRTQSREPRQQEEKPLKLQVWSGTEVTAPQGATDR

## CN(C)CCCSC(=N)N [dimaprit]
[1]
  NK cell mediated cytotoxicity: capable of augmenting NK cell mediated cytotoxicity
[2]
  effect of histamine on granulocyte mediated suppression of antibody dependent cytotoxicity of NK cells: mimicked

## NCCc1c[nH]cn1 [histamine]
[3]
  survival time: prolong survival time
[4]
  half life in the blood: five
[5]; even after histamine administration was discontinued
  persistence of circulating blood histamine levels: remained elevated for sustained periods of time
[5]; histamine 0.4-0.7 mg s.c. twice daily with IL-2 for 21 days, samples at least 8 hours after last injection, beneficial = at least 0.2 μmole/L
  circulating blood histamine levels following histamine administration: rose to beneficial levels
[6]
  efficacy on prolonged administration: decreased or lack of efficacy

## CNC(=C[N+](=O)[O-])NCCSCc1ccc(CN(C)C)o1 [ranitidine]
[2]
  effect of histamine on granulocyte mediated suppression of antibody dependent cytotoxicity of NK cells: blocked

## IL-2: cytokine synthesized by T cells; human recombinant interleukin-2 (Proleukin, Eurocetus)
[7]
  fraction of AML patients with inversion of remission time: < 10%

Source: patent publication US6613788B1, “Elevation of circulating blood histamine levels” (Maxim Pharmaceuticals, Inc., priority 1996, dated 2003)
